# Values joined by “and” are separate entries in the source; they are usually repeats but may differ in a detail not shown here. Equal values may be shown once.
# System: MRSA (ATCC BAA-43)
# Test: MRSA/antimicrobial potentiation, CFU on TSB agar with and without antibiotic after laser (Example XXII, Experiments 1-4)
# Format: cell-based, Staphylococcus aureus subsp. aureus
# Details: for CFU (single plate count): 0.5 μg/ml penicillin G or 4 μg/ml erythromycin, plates 1-5; for AVG (CFU): mean of 5 plates; for Drug Effect: CFU with drug relative to without drug; for Laser Effect (+Drug): Exp vs Cont, both with drug; for Laser Effect (+Meth): both on 30 μg/ml methicillin; for Meth Effect: CFU with methicillin / without; for AVG: mean of plates; for CFU: replicate plates
# Procedure: Four separate experiments have been performed.
# Eight different laser dosages were used to treat a saline-suspension of logarithmically growing MRSA, labeled A1 to H1.
# The treated and a control untreated suspension were diluted and plated in triplicate on trypic soy agar with or without 30 μg/ml methicillin After 24 hrs of growth at 37° C. colonies were counted.
# CFU (colony forming units) were compared between the plates with and without methicillin for both control (untreated) and treated MRSA.
# The treated and a control untreated suspension were diluted and plated in triplicate on trypic soy agar with or without 30 μg/mlmethicillin.
# After 24 hrs of growth at 37° C. colonies were counted.
# The treated and a control untreated suspension were diluted and plated in pentuplicate on trypic soy agar with or without 30 μg/ml methicillin.
# [1] = Cont (no laser), Drug yes, groups A4/C4/E4
# [2] = Cont (no laser), Drug yes, groups B4/D4/F4
# [3] = Exp (laser 870+930 at 5 W 14 min, then 930 at 6 W 9 min), Drug yes, groups B4/D4/F4
# [4] = Exp (laser 870+930 at 5.5 W 12 min, then 930 at 8 W 6 min), Drug yes, groups A4/C4/E4
# [5] = Exp#1 A1 Cont (no laser), agar with 30 μg/ml methicillin
# [6] = Exp#1 A1 Exp (laser treated), agar with 30 μg/ml methicillin
# [7] = Exp#1 B1 Cont (no laser), agar with 30 μg/ml methicillin
# [8] = Exp#1 B1 Exp (laser treated), agar with 30 μg/ml methicillin
# [9] = Exp#1 C1 Cont (no laser), agar with 30 μg/ml methicillin
# [10] = Exp#1 C1 Exp (laser treated), agar with 30 μg/ml methicillin
# [11] = Exp#1 D1 Cont (no laser), agar with 30 μg/ml methicillin
# [12] = Exp#1 D1 Exp (laser treated), agar with 30 μg/ml methicillin
# [13] = Exp#1 E1 Cont (no laser), agar with 30 μg/ml methicillin
# [14] = Exp#1 E1 Exp (laser treated), agar with 30 μg/ml methicillin
# [15] = Exp#1 F1 Cont (no laser), agar with 30 μg/ml methicillin
# [16] = Exp#1 F1 Exp (laser treated), agar with 30 μg/ml methicillin
# [17] = Exp#1 G1 Cont (no laser), agar with 30 μg/ml methicillin
# [18] = Exp#1 G1 Exp (laser treated), agar with 30 μg/ml methicillin
# [19] = Exp#1 H1 Cont (no laser), agar with 30 μg/ml methicillin
# [20] = Exp#1 H1 Exp (laser treated), agar with 30 μg/ml methicillin
# [21] = Exp#2 A2 Cont (no laser), agar with 30 μg/ml methicillin
# [22] = Exp#2 A2 Exp (laser treated), agar with 30 μg/ml methicillin
# [23] = Exp#2 B2 Cont (no laser), agar with 30 μg/ml methicillin
# [24] = Exp#2 B2 Exp (laser treated), agar with 30 μg/ml methicillin
compound,measurement,setting,value
COc1cccc(OC)c1C(=O)N[C@@H]1C(=O)N2[C@@H]1SC(C)(C)[C@@H]2C(=O)O [Methicillin],CFU/ml,[1],2.59E+08 CFU/ml
same,CFU (single plate count),"Cont (no laser), Drug yes, groups A4/C4/E4, agar with 30 μg/ml methicillin, 24 hrs 37° C.",97 CFU and 104 CFU and 82 CFU and 58 CFU and 90 CFU
same,AVG (CFU),[1],86.2 CFU
same,CFU/ml,[2],3.98E+08 CFU/ml
same,CFU (single plate count),"Cont (no laser), Drug yes, groups B4/D4/F4, agar with 30 μg/ml methicillin, 24 hrs 37° C.",149 CFU and 101 CFU and 119 CFU and 153 CFU and 141 CFU
same,AVG (CFU),[2],132.6 CFU
same,Drug Effect,"Cont (no laser), groups A4/C4/E4",0.94
same,Drug Effect,"Cont (no laser), groups B4/D4/F4",1.26
same,CFU/ml,[3],1.27E+08 CFU/ml
same,AVG (CFU),[3],42.4 CFU
same,Drug Effect,"Exp (laser 870+930 at 5 W 14 min, then 930 at 6 W 9 min), groups B4/D4/F4",0.48
same,CFU/ml,[4],1.09E+08 CFU/ml
same,AVG (CFU),[4],36.2 CFU
same,Drug Effect,"Exp (laser 870+930 at 5.5 W 12 min, then 930 at 8 W 6 min), groups A4/C4/E4",0.43
same,CFU (single plate count),"Exp (laser: 870 at 5 W and 930 at 5 W for 14 min followed by 930 at 6 W for 9 min), Drug yes, groups B4/D4/F4, 30 μg/ml methicillin",46 CFU and 34 CFU and 42 CFU and 44 CFU
same,CFU (single plate count),"Exp (laser: 870 at 5.5 W and 930 at 5.5 W for 12 min followed by 930 at 8 W for 6 min), Drug yes, groups A4/C4/E4, 30 μg/ml methicillin",37 CFU and 33 CFU and 36 CFU and 39 CFU
same,Laser Effect (+Drug),"laser 870+930 at 5 W 14 min, then 930 at 6 W 9 min, groups B4/D4/F4",0.32
same,Laser Effect (+Drug),"laser 870+930 at 5.5 W 12 min, then 930 at 8 W 6 min, groups A4/C4/E4",0.42
same,Laser Effect (+Meth),"Exp#1 A1, laser Exp / Cont",0.7035
same,Meth Effect,Exp#1 A1 Cont (no laser),0.6956
same,CFU/ml,[5],4.25E+08 CFU/ml
same,AVG,[5],141.7 CFU
same,CFU,[5],207 CFU and 137 CFU and 81 CFU
same,Meth Effect,Exp#1 A1 Exp (laser treated),0.7419
same,CFU/ml,[6],2.99E+08 CFU/ml
same,AVG,[6],99.7 CFU
same,CFU,[6],99 CFU and 96 CFU and 104 CFU
same,Laser Effect (+Meth),"Exp#1 B1, laser Exp / Cont",0.6693
same,Meth Effect,Exp#1 B1 Cont (no laser),0.8991
same,CFU/ml,[7],5.08E+08 CFU/ml
same,AVG,[7],169.3 CFU
same,CFU,[7],166 CFU and 192 CFU and 150 CFU
same,Meth Effect,Exp#1 B1 Exp (laser treated),0.5657
same,CFU/ml,[8],3.40E+08 CFU/ml
same,AVG,[8],113.3 CFU
same,CFU,[8],102 CFU and 107 CFU and 131 CFU
same,Laser Effect (+Meth),"Exp#1 C1, laser Exp / Cont",0.3259
same,Meth Effect,Exp#1 C1 Cont (no laser),1.267
same,CFU/ml,[9],1.22E+09 CFU/ml
same,AVG,[9],406 CFU
same,CFU,[9],240 CFU and 466 CFU and 512 CFU
same,Meth Effect,Exp#1 C1 Exp (laser treated),0.7192
same,CFU/ml,[10],3.97E+08 CFU/ml
same,AVG,[10],132.3 CFU
same,CFU,[10],95 CFU and 176 CFU and 126 CFU
same,Laser Effect (+Meth),"Exp#1 D1, laser Exp / Cont",1.0087
same,Meth Effect,Exp#1 D1 Cont (no laser),0.837
same,CFU/ml,[11],4.62E+08 CFU/ml
same,AVG,[11],154 CFU
same,CFU,[11],171 CFU and 141 CFU and 150 CFU
same,Meth Effect,Exp#1 D1 Exp (laser treated),0.7627
same,CFU/ml,[12],4.66E+08 CFU/ml
same,AVG,[12],155.3 CFU
same,CFU,[12],164 CFU and 153 CFU and 149 CFU
same,Laser Effect (+Meth),"Exp#1 E1, laser Exp / Cont",1.632
same,Meth Effect,Exp#1 E1 Cont (no laser),0.5828
same,CFU/ml,[13],3.94E+08 CFU/ml
same,AVG,[13],131.3 CFU
same,CFU,[13],147 CFU and 121 CFU and 126 CFU
same,Meth Effect,Exp#1 E1 Exp (laser treated),0.8297
same,CFU/ml,[14],6.43E+08 CFU/ml
same,AVG,[14],214.3 CFU
same,CFU,[14],181 CFU and 232 CFU and 230 CFU
same,Laser Effect (+Meth),"Exp#1 F1, laser Exp / Cont",0.9949
same,Meth Effect,Exp#1 F1 Cont (no laser),0.8735
same,CFU/ml,[15],5.94E+08 CFU/ml
same,AVG,[15],198 CFU
same,CFU,[15],197 CFU and 188 CFU and 209 CFU
same,Meth Effect,Exp#1 F1 Exp (laser treated),0.8289
same,CFU/ml,[16],5.91E+08 CFU/ml
same,AVG,[16],197 CFU
same,CFU,[16],206 CFU (2×) and 179 CFU
same,Laser Effect (+Meth),"Exp#1 G1, laser Exp / Cont",0.9605
same,Meth Effect,Exp#1 G1 Cont (no laser),0.9792
same,CFU/ml,[17],6.58E+08 CFU/ml
same,AVG,[17],219.3 CFU
same,CFU,[17],246 CFU and 222 CFU and 190 CFU
same,Meth Effect,Exp#1 G1 Exp (laser treated),0.8681
same,CFU/ml,[18],6.32E+08 CFU/ml
same,AVG,[18],210.7 CFU
same,CFU,[18],193 CFU and 237 CFU and 202 CFU
same,Laser Effect (+Meth),"Exp#1 H1, laser Exp / Cont",1.0381
same,Meth Effect,Exp#1 H1 Cont (no laser),0.7533
same,CFU/ml,[19],5.77E+08 CFU/ml
same,AVG,[19],192.3 CFU
same,CFU,[19],188 CFU and 206 CFU and 183 CFU
same,Meth Effect,Exp#1 H1 Exp (laser treated),0.815
same,CFU/ml,[20],5.99E+08 CFU/ml
same,AVG,[20],199.7 CFU
same,CFU,[20],211 CFU and 212 CFU and 176 CFU
same,Laser Effect (+Meth),"Exp#2 A2, laser Exp / Cont",1.15
same,Meth Effect,Exp#2 A2 Cont (no laser),0.72
same,CFU/ml,[21],1.07E+08 CFU/ml
same,AVG,[21],35.7 CFU
same,CFU,[21],35 CFU and 47 CFU and 25 CFU
same,Meth Effect,Exp#2 A2 Exp (laser treated),0.87
same,CFU/ml,[22],1.23E+08 CFU/ml
same,AVG,[22],41 CFU
same,CFU,[22],39 CFU and 48 CFU and 36 CFU
same,Laser Effect (+Meth),"Exp#2 B2, laser Exp / Cont",0.54
same,Meth Effect,Exp#2 B2 Cont (no laser),0.7
same,CFU/ml,[23],1.49E+08 CFU/ml
same,AVG,[23],49.7 CFU
same,CFU,[23],47 CFU and 56 CFU and 46 CFU
same,Meth Effect,Exp#2 B2 Exp (laser treated),0.77
same,CFU/ml,[24],8.00E+07 CFU/ml
same,AVG,[24],26.7 CFU
same,CFU,[24],27 CFU and 28 CFU and 25 CFU
same,Laser Effect (+Meth),"Exp#2 C2, laser Exp / Cont",0.23
same,Meth Effect,Exp#2 C2 Cont (no laser),0.99

# Reference: patent publication US20110295343A1, “NEAR-INFRARED ELECTROMAGNETIC MODIFICATION OF CELLULAR STEADY-STATE MEMBRANE POTENTIALS” (priority 2008, published 2011)
